We go through 9 molecules from patent US5846936A, “Growth hormone releasing factor analogs” (Roche Vitamins Inc., priority 1995, dated 1998).

Where a SMILES comes first, the peptide text is derived from it. Where no end group is shown, it is not given here. [ ]: non-standard residue; d: D form. The star is where a group is joined. Desaminotyrosyl = O=C(CCc1ccc(O)cc1)*

One data set concerns rat pituitary cells. The format is cell-based. The procedure: The biological activity of the novel peptides were compared with that of a synthetic standard of the natural sequence of GRF(1-44)-NH2 (SEQ ID NO: 1-NH2) which was isolated from a human pancreatic tumor of an individual suffering from acromegaly (Salk Institute standard hp-GRF-NH2 (NL-A-10)). The assay for biological activity, which is based on the ability to stimulate production of growth hormone in rat pituitary cells in tissue culture, was performed in the following manner. Pituitaries from 30-40 male Sprague-Dawley rats (175 g) were removed aseptically after decapitation. The anterior lobes were collected, washed 3 times in sterile Hepes buffer (0.025M)(pH 7.35) and dispersed at 37° C. in 20-30 ml Hepes buffer (pH 7.35) containing collagenase (4 mg per ml) and Dispase (Protease grande II, 2 mg per ml). After gentle 80 min. vortexing and trituration by Pasteur pipette, the dispersed cells were separated by centrifugation (150×g, 4 min.) and re-suspended in Hepes buffer containing neuraminidase (4 mg/ml), and […] ethylenediaminetetraacetic acid (EDTA) disodium salt pH 7.35, for 10 min. The cells were washed twice with plating medium and plated on multiwell-plates (1.5×10^5 cells per ml) using the following defined medium: F-12/DMEM/BGJ(6:3:1) (Gibco: 430-1700/430-1600/320-2591) with 2 g BSA/L., 2.38 g Hepes/L.,50 mg Gentamycin/L (Schering Co.). The medium in each well was supplemented either with the novel peptide or natural GRF(1-44)-NH2 (SEQ ID NO: 1-NH2) at concentrations ranging from 3.1 to 200 fmol. per ml. of medium. Control wells contained no supplement. Plating was done with this medium added with 2% fetal calf serum to ensure rapid fixation of the cells. On the fourth day the cells were washed twice with the defined medium without fetal calf serum. Finally […] of defined medium was added to each well plus […] of the same medium containing each individual treatment, in triplicate. After 3 hours of incubation the medium was collected and diluted as required to conduct radioimmunoassay (RIA) for rat growth hormone. RIAs were conducted using Sinha's anti-murine GH immune serum and procedures according to the National Pituitary Agency using protein A to precipitate antibody antigen complex.

Data set [1] can be described thus: Half-life stability of GRF analogs in aqueous solution by reverse phase HPLC. The format is physicochemical. The note with it: aqueous buffer pH 7.40 (0.25M Na2HPO4/H3PO4, 1.0 mM NaN3), 37° C., 0.15 mg/mL. Here is the method:
Half-life stability of GRF analogs in aqueous solution was determined by reverse phase HPLC at 37° C. GRF analogs were prepared as described above. GRF analogs were dissolved in […] of H2 O and then taken up in 1.0 mL of buffer solution (pH 7.40) containing 0.25M Na2 HPO4 /H3 PO4 and 1.0 mM NaN3. The concentration of the GRF analogs was 0.15 mg/mL. The HPLC system was a Laboratory Data Control (LDC) HPLC with a Waters C-18 column (3.9×300 mm, 10μ). The detector was a LDC Spectromonitor III and the gradient delivery system was a Constametric II. Mobile phase--(A) 0.025% TFA in H2 O, (B) 0.025% TFA in acetonitrile. Gradient was 0-37% (B) in 15 minutes for SEQ ID NO: 8-NH2 where Xaa^1 is desNH2 Tyr and Xaa^2 is D-Ala and SEQ ID NO: 9-NH2 where Xaa^1 is desNH2 Tyr and Xaa^2 is D-Ala; 0-35% (B) in 15 minutes for SEQ ID NO: 35-NH2 where Xaa^1 is desNH2 Tyr and Xaa^2 is D-Ala; and 0-36% (B) in 15 minutes for SEQ ID NO: 10-NH2 where Xaa^1 is desNH2 Tyr and Xaa^2 is D-Ala. Flow rate for all gradients was 2 ml/minute. Detection was at 206 nm using a UV detector.

Consider `CC[C@H](C)[C@H](NC(=O)[C@H](C)NC(=O)[C@H](CC(=O)O)NC(=O)[C@@H](C)NC(=O)[C@@H](N)Cc1c[nH]cn1)C(=O)N[C@@H](Cc1ccccc1)C(=O)N[C@H](C(=O)N[C@@H](CCC(N)=O)C(=O)N[C@@H](CO)C(=O)N[C@@H](Cc1ccc(O)cc1)C(=O)N[C@@H](CCCNC(=N)N)C(=O)N[C@@H](CCCCN)C(=O)N[C@H](C(=O)N[C@@H](CC(C)C)C(=O)N[C@@H](C)C(=O)N[C@@H](CCC(N)=O)C(=O)N[C@@H](CC(C)C)C(=O)N[C@@H](CO)C(=O)N[C@@H](C)C(=O)N[C@@H](CCCNC(=N)N)C(=O)N[C@@H](CCCCN)C(=O)N[C@@H](CC(C)C)C(=O)N[C@@H](CC(C)C)C(=O)N[C@@H](CCC(N)=O)C(=O)N[C@@H](CC(=O)O)C(=O)N[C@H](C(=O)N[C@@H](CC(C)C)C(=O)N[C@@H](CO)C(=O)N[C@@H](CCCNC(=N)N)C(=O)N[C@@H](CCC(N)=O)C(=O)N[C@@H](CCC(N)=O)C(=O)NCC(=O)O)[C@@H](C)CC)C(C)C)[C@@H](C)O` [SEQ ID NO: 17-OH] (H-H[dA]DAIFTQSYRKVLAQLSARKLLQDILSRQQG-OH), for which, in the data set with rat pituitary cells, the “Potency of GRF Analogs Relative to GRF(1-44)-NH2 (SEQ ID NO: 1-NH2)” value is recorded as 3.23.

Take `CC[C@H](C)[C@H](NC(=O)[C@H](C)NC(=O)[C@H](CC(=O)O)NC(=O)[C@@H](C)NC(=O)CCc1ccc(O)cc1)C(=O)N[C@@H](Cc1ccccc1)C(=O)N[C@H](C(=O)N[C@@H](CO)C(=O)N[C@@H](CO)C(=O)N[C@@H](Cc1ccc(O)cc1)C(=O)N[C@@H](CCCNC(=N)N)C(=O)N[C@@H](CCCCN)C(=O)N[C@H](C(=O)N[C@@H](CC(C)C)C(=O)N[C@@H](C)C(=O)N[C@@H](CCC(N)=O)C(=O)N[C@@H](CC(C)C)C(=O)N[C@@H](CO)C(=O)N[C@@H](C)C(=O)N[C@@H](CCCNC(=N)N)C(=O)N[C@@H](CCCCN)C(=O)N[C@@H](CC(C)C)C(=O)N[C@@H](CC(C)C)C(=O)N[C@@H](CCC(N)=O)C(=O)N[C@@H](CC(=O)O)C(=O)N[C@H](C(=O)N[C@@H](CCSC)C(=O)N[C@@H](CO)C(=O)N[C@@H](CCCNC(=N)N)C(N)=O)[C@@H](C)CC)C(C)C)[C@@H](C)O` [SEQ ID NO: 9-NH2] (Desaminotyrosyl-[dA]DAIFTSSYRKVLAQLSARKLLQDIMSR-NH2): the “Potency of GRF Analogs Relative to GRF(1-44)-NH2 (SEQ ID NO: 1-NH2)” value with rat pituitary cells was 3.55.

`CC[C@H](C)[C@H](NC(=O)[C@H](C)NC(=O)[C@H](CC(=O)O)NC(=O)[C@@H](C)NC(=O)CCc1ccc(O)cc1)C(=O)N[C@@H](Cc1ccccc1)C(=O)N[C@H](C(=O)N[C@H](C(=O)N[C@@H](CO)C(=O)N[C@@H](Cc1ccc(O)cc1)C(=O)N[C@@H](CCCNC(=N)N)C(=O)N[C@@H](CCCCN)C(=O)N[C@H](C(=O)N[C@@H](CC(C)C)C(=O)N[C@@H](C)C(=O)N[C@@H](CCC(N)=O)C(=O)N[C@@H](CC(C)C)C(=O)N[C@@H](CO)C(=O)N[C@@H](C)C(=O)N[C@@H](CCCNC(=N)N)C(=O)N[C@@H](CCCCN)C(=O)N[C@@H](CC(C)C)C(=O)N[C@@H](CC(C)C)C(=O)N[C@@H](CCC(N)=O)C(=O)N[C@@H](CC(=O)O)C(=O)N[C@H](C(=O)N[C@@H](CCSC)C(=O)N[C@@H](CO)C(=O)N[C@@H](CCCNC(=N)N)C(N)=O)[C@@H](C)CC)C(C)C)[C@@H](C)O)[C@@H](C)O` [SEQ ID NO: 8-NH2] (Desaminotyrosyl-[dA]DAIFTTSYRKVLAQLSARKLLQDIMSR-NH2): in data set [1], the “HALF-LIFE t(1/2)” value amounted to 169 h. For the same molecule, the “Potency of GRF Analogs Relative to GRF(1-44)-NH2 (SEQ ID NO: 1-NH2)” value in the data set with rat pituitary cells is given as 3.77.

As to `CC[C@H](C)[C@H](NC(=O)[C@H](C)NC(=O)[C@H](CC(=O)O)NC(=O)[C@@H](C)NC(=O)CCc1ccc(O)cc1)C(=O)N[C@@H](Cc1ccccc1)C(=O)N[C@H](C(=O)N[C@@H](CCC(N)=O)C(=O)N[C@@H](CO)C(=O)N[C@@H](Cc1ccc(O)cc1)C(=O)N[C@@H](CCCNC(=N)N)C(=O)N[C@@H](CCCCN)C(=O)N[C@H](C(=O)N[C@@H](CC(C)C)C(=O)N[C@@H](C)C(=O)N[C@@H](CCC(N)=O)C(=O)N[C@@H](CC(C)C)C(=O)N[C@@H](CO)C(=O)N[C@@H](C)C(=O)N[C@@H](CCCNC(=N)N)C(=O)N[C@@H](CCCCN)C(=O)N[C@@H](CC(C)C)C(=O)N[C@@H](CC(C)C)C(=O)N[C@@H](CCC(N)=O)C(=O)N[C@@H](CC(=O)O)C(=O)N[C@H](C(=O)N[C@@H](CCSC)C(=O)N[C@@H](CO)C(=O)N[C@@H](CCCNC(=N)N)C(N)=O)[C@@H](C)CC)C(C)C)[C@@H](C)O` [SEQ ID NO: 10-NH2] (Desaminotyrosyl-[dA]DAIFTQSYRKVLAQLSARKLLQDIMSR-NH2), in data set [1], the “HALF-LIFE t(1/2)” value is 122 h. The “Potency of GRF Analogs Relative to GRF(1-44)-NH2 (SEQ ID NO: 1-NH2)” value in the data set on rat pituitary cells turned out to be 4.57.

For `CC[C@H](C)[C@H](NC(=O)[C@H](C)NC(=O)[C@H](CC(=O)O)NC(=O)[C@@H](C)NC(=O)CCc1ccc(O)cc1)C(=O)N[C@@H](Cc1ccccc1)C(=O)N[C@H](C(=O)N[C@@H](CCC(N)=O)C(=O)N[C@@H](CO)C(=O)N[C@@H](Cc1ccc(O)cc1)C(=O)N[C@@H](CCCNC(=N)N)C(=O)N[C@@H](CCCCN)C(=O)N[C@H](C(=O)N[C@@H](CC(C)C)C(=O)N[C@@H](C)C(=O)N[C@@H](CCC(N)=O)C(=O)N[C@@H](CC(C)C)C(=O)N[C@@H](CO)C(=O)N[C@@H](C)C(=O)N[C@@H](CCCNC(=N)N)C(=O)N[C@@H](CCCCN)C(=O)N[C@@H](CC(C)C)C(=O)N[C@@H](CC(C)C)C(=O)N[C@@H](CCC(N)=O)C(=O)N[C@@H](CC(=O)O)C(=O)N[C@H](C(=O)N[C@@H](CC(C)C)C(=O)N[C@@H](CO)C(=O)N[C@@H](CCCNC(=N)N)C(=O)N[C@@H](CCC(N)=O)C(=O)N[C@@H](CCC(N)=O)C(=O)NCC(=O)O)[C@@H](C)CC)C(C)C)[C@@H](C)O` [SEQ ID NO: 31-OH] (Desaminotyrosyl-[dA]DAIFTQSYRKVLAQLSARKLLQDILSRQQG-OH), the “Potency of GRF Analogs Relative to GRF(1-44)-NH2 (SEQ ID NO: 1-NH2)” value in the data set with rat pituitary cells was 4.20.

Turning to `CC[C@H](C)[C@H](NC(=O)[C@H](C)NC(=O)[C@H](CC(=O)O)NC(=O)[C@H](C)NC(=O)[C@@H](N)Cc1ccc(O)cc1)C(=O)N[C@@H](Cc1ccccc1)C(=O)N[C@H](C(=O)N[C@@H](CC(N)=O)C(=O)N[C@@H](CO)C(=O)N[C@@H](Cc1ccc(O)cc1)C(=O)N[C@@H](CCCNC(=N)N)C(=O)N[C@@H](CCCCN)C(=O)N[C@H](C(=O)N[C@@H](CC(C)C)C(=O)NCC(=O)N[C@@H](CCC(N)=O)C(=O)N[C@@H](CC(C)C)C(=O)N[C@@H](CO)C(=O)N[C@@H](C)C(=O)N[C@@H](CCCNC(=N)N)C(=O)N[C@@H](CCCCN)C(=O)N[C@@H](CC(C)C)C(=O)N[C@@H](CC(C)C)C(=O)N[C@@H](CCC(N)=O)C(=O)N[C@@H](CC(=O)O)C(=O)N[C@H](C(=O)N[C@@H](CCSC)C(=O)N[C@@H](CO)C(=O)N[C@@H](CCCNC(=N)N)C(=O)N[C@@H](CCC(N)=O)C(=O)N[C@@H](CCC(N)=O)C(=O)NCC(=O)N[C@@H](CCC(=O)O)C(=O)N[C@@H](CO)C(=O)N[C@@H](CC(N)=O)C(=O)N[C@@H](CCC(N)=O)C(=O)N[C@@H](CCC(=O)O)C(=O)N[C@@H](CCCNC(=N)N)C(=O)NCC(=O)N[C@@H](C)C(=O)N[C@@H](CCCNC(=N)N)C(=O)N[C@@H](C)C(=O)N[C@@H](CCCNC(=N)N)C(=O)N[C@@H](CC(C)C)C(N)=O)[C@@H](C)CC)C(C)C)[C@@H](C)O` [SEQ ID NO: 1-NH2, GRF(1-44)-NH2, reference compound], in the data set with rat pituitary cells, the “Potency of GRF Analogs Relative to GRF(1-44)-NH2 (SEQ ID NO: 1-NH2)” value is recorded as 1.00.

On to “HADAIFTQSYRKVLAQLSARKLLQDILSRQQG [SEQ ID NO: 23-OH]”, for which, in the data set on rat pituitary cells, the “Potency of GRF Analogs Relative to GRF(1-44)-NH2 (SEQ ID NO: 1-NH2)” value was 2.96.

Consider “HVDAIFTQSYRKVLAQLSARKLLQDILNRQQG [SEQ ID NO: 14-OH]”, for which, in the data set with rat pituitary cells, the “Potency of GRF Analogs Relative to GRF(1-44)-NH2 (SEQ ID NO: 1-NH2)” value is reported as 3.11.

In the case of “HVDAIFTQSYRKVLAQLSARKLLQDILSRQQG [SEQ ID NO: 13-OH]”, the “Potency of GRF Analogs Relative to GRF(1-44)-NH2 (SEQ ID NO: 1-NH2)” value in the data set on rat pituitary cells was found to be 2.79.
